We go through seven molecules from patent US8048882B2, “Pharmaceutical compositions with increased activity” (priority 2003, dated 2011).

Data set [1] relates to GYKI 20039-induced tremor. As to the kind of experiment: GYKI 20039-induced tremor test. Format: in vivo, mice. As to conditions: for change of effectiveness in tremor test when a serotonin uptake inhibitor is present: with 10 mg/kg fluoxetine or 10 mg/kg sertraline i.p., FIG. 4. The method, then:
Tremor can be induced by administration of GYKI 20039 (3-(2,6-diclorophenyl)-2-iminothiazolidine). The method was published by Kocsis P., Tarnawa I., Kovacs Gy., Szombathelyi Zs., Farkas S., 2002; Acta Pharmaceut. Hung., 72:49-61; U.S. Pat. No. 5,340,823, 1994, U.S. Pat. No. 5,198,446, JP 1992270293, EP 0468825, 1990 HU 4647.
Tests were carried out in male NMRI mice (19-21 g), the active substances were administered i.p., simultaneously.
Experiments with combinations containing the active agents in a fixed ratio were also performed.

Data set [2] deals with maximal electroshock seizures. Briefly: Inhibition of maximal electroshock seizures (MES). The format is in vivo, mice. As to conditions: sodium channel blocker 30 minutes prior to electroshock. As for the experimental part:
Experiments in this respect were carried out on male NMRI mice (19-21 g).
Serotonin uptake inhibitors were administered i.p. 45 minutes, while sodium channel blockers 30 minutes prior to the electroshock.
For orientation: The maximal electroshock test induces tonic seizures with an electrical stimulus.

The next data set can be described thus: Rotarod test. As to conditions: male, NMRI, mouse, in vivo, read-out: ED50, rotarod test in mice. The method, then: By the rotarod test (Dunnham, N. W., Miya, T. S. J. Am. Pharm. Assoc. 46, 208, 1957) impaired coordination and disorders of the voluntary movement as possible side effects can be studied. In this respect the change in the potency of the voltage-dependent sodium channel blockers caused by the serotonin uptake inhibitors was far less pronounced, resulting in a more favourable side effect profile of the combinations compared to that of the parent compounds.
The tests were carried out using male NMRI mice (19-21 g). Experiments performed with different pretreatment times produced similar results.
(In the rotarod test animals must keep their balance on a rotating rod.)

In data set [3] the test system is spinal reflex (L5 ventral root reflex potential). As to the kind of experiment: Inhibition of the spinal reflex in isolated hemisected spinal cord preparation, in vitro. On the set-up: species or system rat. As to conditions: alone. The method, then:
Our experiments were performed according to the methods described by Otsuka and Konishi (Otsuka, M., Konishi, S. Electrophysiology of mammalian spinal cord in vitro. Nature 252, 733-734; 1974), with slight modifications (Kocsis, P. et al. Participation of AMPA- and NMDA-type excitatory amino acid receptors in the spinal reflex transmission, in rat. Brain Research Bulletin 60: 81-91; 2003). The L5 dorsal root of the isolated, hemisected spinal cord preparation was stimulated by supramaximal electrical impulse and the reflex potential from the L5 ventral root was recorded. Different components of the reflex potential obtained are well distinguishable based on their post-stimulus latencies and durations. […] This preparation is ideal for the investigation of pharmacodynamic interactions between two substances, since metabolic factors take no part in them. […] Cont (control)=effect of crobenitine in itself; as well as in the presence of fluoxetine (Fluo; 1 μM), sertraline (Sert; 0.5 μM), paroxetine (Paro; 10 nM) and citalopram (Cital; 5 nM).

In data set [4] the test system is phenylquinone-induced acute pain. As to the kind of experiment: Phenylquinone-induced acute pain (writhing test). The format is in vivo, mice. As to conditions: with 10 mg/kg fluoxetine given 15 minutes prior to lamotrigine (i.p.); FIG. 5. The source says:
The method used was described by Hendershot and Forsaith in 1959. (Kazuko Goto et al. Analgesic Effect of Mofezolac, a Non-Steroidal Anti-Inflammatory Drug, Against Phenylquinone-Induced Acute Pain in Mice. Prostaglandins & other Lipid Mediators 56: 245-254; 1998, Prem Prakash Singh et al. Acetic Acid and Phenylquinone WrithingTest: A Critical Study in Mice. Meth and Find Exptl Clin Pharmacol 5(9): 601-606; 1983.) Acute pain was induced by injecting phenylquinone, an irritant, into the abdominal cavity (0.02% solution, 0.1 ml/10 g bodyweight). […] Experiments were performed in male NMRI mice (19-21 g).
(In general: An intraperitoneal irritant provokes the stretching counted in writhing tests.)

Setting [5] is: with fluoxetine (10 mg/kg) i.p. 45 minutes.
The mark [6] stands for this setting: with sertraline (10 mg/kg) i.p. 45 minutes.
Where [7] appears, read: in combination with fluoxetine (10 mg/kg).
Setting [8] is: in combination with sertraline (10 mg/kg).
The mark [9] stands for this setting: 10 mg/kg intraperitoneal dose in mice.

Structures are written as SMILES. Read-outs that look alike come from different tables or passages of the source. Some results are limits rather than exact numbers.

What is called ED50 is the dose at which the effect has come halfway, by size or by number of responders. With `C[C@@H](CN1CC[C@@]2(C)c3cccc(O)c3C[C@@H]1C2(C)C)OCc1ccccc1` [crobenetine], the “change of effectiveness in tremor test when a serotonin uptake inhibitor is present” value in data set [1] is “increase of their effectiveness”. For the same molecule, the entries for the “ID50 (MES inhibition in mice)” value in data set [2] (alone), in data set [2] (setting [5]) and in data set [2] (setting [6]) were >>20, 17 mg/kg and 15.5 mg/kg, respectively. Further, the ED50 at 20 min in the data set “Rotarod test” (alone) stood at 68.1 mg/kg; in “Rotarod test” (setting [7]), 38.6 mg/kg; in the data set “Rotarod test” (setting [8]), 36.8 mg/kg. The ED50 at 35 min in “Rotarod test” (setting [7]) was determined as 51 mg/kg; in the data set “Rotarod test” (setting [8]) it was 53.1 mg/kg.

Regarding `CCc1ccc(C(=O)C(C)CN2CCCCC2)cc1` (stereo not shown) [eperisone], the “spinal reflex inhibitory effect” value in data set [3] was “considerable spinal reflex inhibitory effect”.

Consider `CN[C@H]1CC[C@@H](c2ccc(Cl)c(Cl)c2)c2ccccc21` [sertraline], for which, in “Rotarod test” (alone), the ED50 at 20 min is 112 mg/kg and the ED50 at 35 min turned out to be 120 mg/kg.

For the molecule `Nc1nnc(-c2cccc(Cl)c2Cl)c(N)n1` [lamotrigine], the “ID50 (i.p.) (calculated for the sodium channel blocker in the combination)” value in data set [1] (tremor test, male NMRI mice, i.p., components administered simultaneously in fixed ratio) is reported as 39.79 mg/kg. Further, in data set [1], the “change of effectiveness in tremor test when a serotonin uptake inhibitor is present” value is listed as “increase of their effectiveness”. Besides, the “change in analgesic potency (ID50, writhing test) in the presence of a serotonin uptake inhibitor” value in data set [4] is recorded as “Increase in the analgesic potency”. The ID50 (MES inhibition in mice) in data set [2] (alone) amounted to 4.5 mg/kg; in data set [2] (setting [5]), 1.3 mg/kg; in data set [2] (setting [6]), 1.4 mg/kg. The ED50 at 20 min is 34.3 mg/kg in “Rotarod test” (alone), 28.5 mg/kg in the data set “Rotarod test” (setting [7]) and 31.9 mg/kg in “Rotarod test” (setting [8]). The ED50 at 35 min was 31.1 mg/kg in the data set “Rotarod test” (setting [7]) and 30.8 mg/kg in “Rotarod test” (setting [8]).

With `Cc1ccc(C(=O)C(C)CN2CCCCC2)cc1` (stereo not shown) [tolperisone], in data set [3], the “spinal reflex inhibitory effect” value is reported as “considerable spinal reflex inhibitory effect”.

With `CNCCC(Oc1ccc(C(F)(F)F)cc1)c1ccccc1` (stereo not shown) [fluoxetine], in the data set “Rotarod test” (alone), the ED50 at 20 min amounted to 43.5 mg/kg and the ED50 at 35 min was 45.8 mg/kg.

For the molecule `N=C1SCCN1c1c(Cl)cccc1Cl` [GYKI 20039, 3-(2,6-diclorophenyl)-2-iminothiazolidine], in data set [1] (setting [9]), the “duration of induced tremor” value was in the range of 30 to 60 min and the tremor induction result is on record as “intensive tremor”.
